We go through 1 molecule from paper PMC8533363, “Effective Perturbations on the Amplitude and Hysteresis of Erg-Mediated Potassium Current Caused by 1-Octylnonyl 8-[(2-hydroxyethyl)[6-oxo-6(undecyloxy)hexyl]amino]-octanoate (SM-102), a Cationic Lipid” (Biomedicines, 2021).

Molecules are shown by their SMILES.

The IC50 is the point on the concentration scale where inhibition reaches its midpoint. Low readings indicate higher potency, high ones lower potency.

The data set addresses T1, erg-mediated K+ (Kerg, KV11) channel (Rattus norvegicus, UniProt O08962).
T1 construct: gene Kcnh2; native channel in GH3 pituitary tumor cells
T1 sequence (O08962 1-1163): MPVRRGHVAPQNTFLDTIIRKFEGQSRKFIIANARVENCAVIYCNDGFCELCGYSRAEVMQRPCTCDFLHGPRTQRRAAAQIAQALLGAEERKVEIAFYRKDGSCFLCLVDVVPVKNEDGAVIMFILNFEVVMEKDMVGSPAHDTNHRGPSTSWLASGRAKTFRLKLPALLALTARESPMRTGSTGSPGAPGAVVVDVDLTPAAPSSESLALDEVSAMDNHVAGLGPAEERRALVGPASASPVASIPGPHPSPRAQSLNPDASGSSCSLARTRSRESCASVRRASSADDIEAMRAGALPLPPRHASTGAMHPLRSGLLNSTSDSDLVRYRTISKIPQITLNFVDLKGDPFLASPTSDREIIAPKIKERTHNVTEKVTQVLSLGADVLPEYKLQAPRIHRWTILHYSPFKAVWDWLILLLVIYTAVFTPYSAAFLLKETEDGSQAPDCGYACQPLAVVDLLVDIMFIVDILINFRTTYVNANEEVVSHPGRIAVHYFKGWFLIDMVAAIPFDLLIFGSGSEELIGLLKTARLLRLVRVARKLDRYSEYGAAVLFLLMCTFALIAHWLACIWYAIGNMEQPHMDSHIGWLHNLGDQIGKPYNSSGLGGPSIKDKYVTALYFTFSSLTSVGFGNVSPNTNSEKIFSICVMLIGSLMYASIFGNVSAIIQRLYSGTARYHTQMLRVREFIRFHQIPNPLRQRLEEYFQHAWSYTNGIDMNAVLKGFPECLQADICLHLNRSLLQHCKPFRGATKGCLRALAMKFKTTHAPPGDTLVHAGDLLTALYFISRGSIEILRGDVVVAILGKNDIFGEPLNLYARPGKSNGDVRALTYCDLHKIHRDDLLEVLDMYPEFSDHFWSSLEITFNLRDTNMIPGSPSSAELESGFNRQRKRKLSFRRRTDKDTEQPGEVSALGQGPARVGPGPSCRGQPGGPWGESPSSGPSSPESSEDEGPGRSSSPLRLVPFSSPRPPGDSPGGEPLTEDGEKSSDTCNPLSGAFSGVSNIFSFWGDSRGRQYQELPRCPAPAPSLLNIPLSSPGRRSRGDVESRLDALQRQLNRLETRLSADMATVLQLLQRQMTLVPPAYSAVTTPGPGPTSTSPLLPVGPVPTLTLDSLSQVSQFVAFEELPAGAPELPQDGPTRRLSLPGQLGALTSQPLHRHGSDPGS
The data set can be described thus: whole-cell patch clamp of native IK(erg) in GH3 cells; concentration-response and deactivation kinetics (KD […]). Type of data set: cell-based.

As to `CCCCCCCCCCCOC(=O)CCCCCN(CCO)CCCCCCCC(=O)OC(CCCCCCCC)CCCCCCCC` [SM-102, 1-octylnonyl 8-[(2-hydroxyethyl)[6-oxo-6-(undecyloxy)hexyl]amino]-octanoate], the IC50 is 108 µM.
